Experiment [1] deals with Zymoseptoria tritici. Kind of experiment: Leaf blotch of wheat (SEPTTR) disease control on wheat seedlings. The conditions noted are these: for SEPTTR 1DP disease control rating, HV activity / SEPTTR 3DC disease control rating, HV activity: HV application at 100 ppm, wheat leaf blotch. The format is in vivo. Set-up: key to SEPTTR 1DP, HV activity at 100 ppm (% control rating) / SEPTTR 3DC, HV activity at 100 ppm (% control rating) / SEPTTR disease control, 1DP / SEPTTR disease control, 3DC / SEPTTR 1DP disease control rating, HV activity / SEPTTR 3DC disease control rating, HV activity / SEPTTR 3DC, LV activity at 125.1 g/H (% Control rating) / SEPTTR 1DP, LV activity at 125.1 g/H (% Control rating) / SEPTTR 1DP disease control rating, LV activity at 125.1 g/H / SEPTTR 3DC disease control rating, LV activity at 125.1 g/H / SEPTTR 3DC disease control rating, HV activity at 100 ppm / SEPTTR 1DP disease control rating, HV activity at 100 ppm / HV activity at 100 ppm SEPTTR 3DC (disease control rating) / HV activity at 100 ppm SEPTTR 1DP (disease control rating) / LV activity at 125.1 g/H SEPTTR 1DP (disease control rating) / LV activity at 125.1 g/H SEPTTR 3DC (disease control rating): A: > 80; B: ≤ 80; C: Not Tested; D: No Activity Observed in the Reported Assay.

Experiment [2] deals with Puccinia triticina. The experiment is described as follows: Wheat brown rust (PUCCRT) disease control on wheat seedlings. In kind it is in vivo. Set-up: key to PUCCRT 3DC, HV activity at 100 ppm (% control rating) / PUCCRT disease control, 3DC / PUCCRT 1DP disease control rating, HV activity / PUCCRT 3DC disease control rating, HV activity / PUCCRT 3DC, LV activity at 125.1 g/H (% Control rating) / PUCCRT 1DP, LV activity at 125.1 g/H (% Control rating) / PUCCRT 3DC disease control rating, LV activity at 125.1 g/H / PUCCRT 1DP disease control rating, LV activity at 125.1 g/H / PUCCRT 3DC disease control rating, HV activity at 100 ppm / PUCCRT 1DP disease control rating, HV activity at 100 ppm / HV activity at 100 ppm PUCCRT 3DC (disease control rating) / LV activity at 125.1 g/H PUCCRT 1DP (disease control rating) / LV activity at 125.1 g/H PUCCRT 3DC (disease control rating): A: > 80; B: ≤ 80; C: Not Tested; D: No Activity Observed in the Reported Assay. The note with it: for PUCCRT 1DP disease control rating, HV activity / PUCCRT 3DC disease control rating, HV activity: HV application at 100 ppm, wheat brown rust.

Setting [3] is: high volume application, 100 ppm, 1 day protectant.
Where [4] appears, read: high volume application, 100 ppm, 3 day curative.
[5] abbreviates: low volume application, 125.1 g/H, 1 day protectant.
The mark [6] stands for this setting: low volume application, 125.1 g/H, 3 day curative.
[7] abbreviates: low volume application, 125.1 g/H, 1 Day Protectant.
Where [8] appears, read: low volume application, 125.1 g/H, 3 Day Curative.
The mark [9] stands for this setting: HV activity at 100 ppm, 1 Day Protectant, wheat.
The mark [10] stands for this setting: HV activity at 100 ppm, 3 Day Curative, wheat.
Setting [11] is: high volume application, 100 ppm, 1DP.
The mark [12] stands for this setting: high volume application, 100 ppm, 3DC.

Here are results for nine compounds from patent US20180000085A1, “USE OF PICOLINAMIDE COMPOUNDS WITH FUNGICIDAL ACTIVITY” (DOW AGROSCIENCES LLC, priority 2014, published 2018).

`COc1ccnc(C(=O)NC(C)C(=O)OC(C)C(Oc2ccccc2)c2cccs2)c1O` (centres unmarked) [Cmpd 436]: the “SEPTTR 1DP disease control rating, HV activity” value in experiment [1] (1 Day Protectant) was “A (> 80)”. Also, the “SEPTTR 3DC disease control rating, HV activity” value in experiment [1] (3 Day Curative) is recorded as “B (≤ 80)”. Further, the “PUCCRT 1DP disease control rating, HV activity” value in experiment [2] (1 Day Protectant) is reported as “B (≤ 80)”. Further, the “PUCCRT 3DC disease control rating, HV activity” value in experiment [2] (3 Day Curative) is listed as “B (≤ 80)”.

As to `COc1ccnc(C(=O)NC(C)C(=O)OC(C)C(OC)C23CC4CC(CC(C4)C2)C3)c1O` (centres unmarked) [Cmpd 829], the “SEPTTR 1DP disease control rating, HV activity at 100 ppm” value in experiment [1] (setting [3]) is recorded as “D”. In addition, the “SEPTTR 3DC disease control rating, HV activity at 100 ppm” value in experiment [1] (setting [4]) is given as “D”. In addition, the “PUCCRT 1DP disease control rating, HV activity at 100 ppm” value in experiment [2] (setting [3]) is “B (≤ 80)”. Further, in experiment [2] (setting [4]), the “PUCCRT 3DC disease control rating, HV activity at 100 ppm” value is on record as “D”.

For the compound `CCC(CC)C(Oc1ccc(Cl)cc1Cl)C(C)OC(=O)C(CC(C)C)NC(=O)c1nccc(OC)c1OC(C)=O` (centres unmarked) [Cmpd 689], the “SEPTTR 1DP disease control rating, LV activity at 125.1 g/H” value in experiment [1] (setting [5]) is on record as “D”. The “SEPTTR 3DC disease control rating, LV activity at 125.1 g/H” value in experiment [1] (setting [6]) is reported as “B (≤ 80)”. For the same compound, the “PUCCRT 1DP disease control rating, LV activity at 125.1 g/H” value in experiment [2] (setting [5]) is “D”. For the same compound, the “PUCCRT 3DC disease control rating, LV activity at 125.1 g/H” value in experiment [2] (setting [6]) is recorded as “D”.

For `COc1ccnc(C(=O)N[C@@H](C)C(=O)O[C@@H](C)[C@H](Oc2cccc(Cl)c2)c2ccccc2)c1OC(C)=O` [Cmpd 638], the “SEPTTR 1DP, LV activity at 125.1 g/H (% Control rating)” value in experiment [1] (setting [7]) was “A (> 80)”. In experiment [1] (setting [8]), the “SEPTTR 3DC, LV activity at 125.1 g/H (% Control rating)” value was “A (> 80)”. Besides, the “PUCCRT 1DP, LV activity at 125.1 g/H (% Control rating)” value in experiment [2] (setting [7]) is given as “A (> 80)”. Also, in experiment [2] (setting [8]), the “PUCCRT 3DC, LV activity at 125.1 g/H (% Control rating)” value is given as “B (≤ 80)”.

Take `CCCOC(CC)C(Oc1ccccc1)C(C)OC(=O)C(CC)NC(=O)c1nccc(OC)c1O` (centres unmarked) [Cmpd 296]: in experiment [1] (setting [9]), the “SEPTTR disease control, 1DP” value is listed as “B (≤ 80)”. The “SEPTTR disease control, 3DC” value in experiment [1] (setting [10]) is listed as “B (≤ 80)”. In addition, the “SEPTTR 1DP disease control rating, HV activity” value in experiment [1] (1 Day Protectant) is “B (≤ 80)”. Also, in experiment [1] (3 Day Curative), the “SEPTTR 3DC disease control rating, HV activity” value is reported as “B (≤ 80)”. Further, the “SEPTTR 1DP, HV activity at 100 ppm (% control rating)” value in experiment [1] (setting [11]) is listed as “B (≤ 80)”. Moreover, the “SEPTTR 3DC, HV activity at 100 ppm (% control rating)” value in experiment [1] (setting [12]) is reported as “B (≤ 80)”. The “PUCCRT disease control, 1DP” value in experiment [2] (setting [9]) is given as “B (≤ 80)”. For the same compound, the “PUCCRT disease control, 3DC” value in experiment [2] (setting [10]) is reported as “A (> 80)”. The “PUCCRT 1DP disease control rating, HV activity” value in experiment [2] (1 Day Protectant) is “B (≤ 80)”. Further, the “PUCCRT 3DC disease control rating, HV activity” value in experiment [2] (3 Day Curative) is “A (> 80)”. In experiment [2] (setting [11]), the “PUCCRT 1DP, HV activity at 100 ppm (% control rating)” value is given as “B (≤ 80)”. In experiment [2] (setting [12]), the “PUCCRT 3DC, HV activity at 100 ppm (% control rating)” value is reported as “A (> 80)”.

Consider `COc1cccc(O[C@H](C2CC2)[C@H](C)OC(=O)[C@H](C)NC(=O)c2nccc(OC)c2O)c1` [Cmpd 1014], for which, in experiment [1] (setting [3]), the “SEPTTR 1DP disease control rating, HV activity at 100 ppm” value was “B (≤ 80)”. For the same compound, the “SEPTTR 3DC disease control rating, HV activity at 100 ppm” value in experiment [1] (setting [4]) is “B (≤ 80)”. In experiment [2] (setting [3]), the “PUCCRT 1DP disease control rating, HV activity at 100 ppm” value is recorded as “A (> 80)”. Moreover, the “PUCCRT 3DC disease control rating, HV activity at 100 ppm” value in experiment [2] (setting [4]) is recorded as “A (> 80)”.

Regarding `COc1ccnc(C(=O)NC(C)C(=O)OC(C)C(Oc2cccc(F)c2)C(C)C)c1O` (centres unmarked) [Cmpd 390], the “SEPTTR 1DP disease control rating, HV activity” value in experiment [1] (1 Day Protectant) is “B (≤ 80)”. Besides, in experiment [1] (3 Day Curative), the “SEPTTR 3DC disease control rating, HV activity” value is listed as “A (> 80)”. The “PUCCRT 1DP disease control rating, HV activity” value in experiment [2] (1 Day Protectant) was “A (> 80)”. For the same compound, in experiment [2] (3 Day Curative), the “PUCCRT 3DC disease control rating, HV activity” value is “A (> 80)”.

Turning to `CC(NC(=O)c1ncccc1O)C(=O)OC(C)C(Oc1ccccc1)C(C)C` (centres unmarked) [Cmpd 424], in experiment [1] (1 Day Protectant), the “SEPTTR 1DP disease control rating, HV activity” value is on record as “A (> 80)”. For the same compound, the “SEPTTR 3DC disease control rating, HV activity” value in experiment [1] (3 Day Curative) is “A (> 80)”. Moreover, the “PUCCRT 1DP disease control rating, HV activity” value in experiment [2] (1 Day Protectant) is recorded as “A (> 80)”. In addition, the “PUCCRT 3DC disease control rating, HV activity” value in experiment [2] (3 Day Curative) is given as “A (> 80)”.

For the compound `COc1ccnc(C(=O)N[C@@H](C)C(=O)O[C@@H](C)COCc2ccccc2)c1O` [Cmpd 331], the “SEPTTR 1DP disease control rating, HV activity” value in experiment [1] (1 Day Protectant) was “B (≤ 80)”. Moreover, the “SEPTTR 3DC disease control rating, HV activity” value in experiment [1] (3 Day Curative) was “D”. Besides, in experiment [2] (1 Day Protectant), the “PUCCRT 1DP disease control rating, HV activity” value is listed as “B (≤ 80)”. Moreover, the “PUCCRT 3DC disease control rating, HV activity” value in experiment [2] (3 Day Curative) is “A (> 80)”.
